Laboratory results as given in patent US7223777B2, “Compounds for the management of aging-related and diabetic vascular complications, process for their preparation, therapeutic and cosmetic uses thereof” (Torrent Pharmaceuticals Ltd., priority 2001, dated 2007).

Assays:
[1] = system: AGE derived protein cross links; details: Vasan et al. Nature 1996; U.S. Pat. No. 5,853,703; cited from earlier work
[2] = diabetes induced (Wolffenbuttel 1998); cited from earlier work
AGE-BSA = target: T1, AGE-BSA (Bos taurus, UniProt P02769); test: In-vitro screening for AGE-breaking activity (AGE-BSA incubated with compound; ELISA / gel permeation chromatography); assay type: biochemical, bovine; details: 37° C., 24 hours
T1 construct: Bovine serum albumin (fraction V) (BSA); from tissue; host or cells: bovine serum (fraction V); own knowledge: fraction V is the albumin fraction of plasma/serum
Procedure: Fluorescence was used as the criteria to monitor the increased AGE formation.
160 mg/ml of protein, bovine serum albumin, BSA and 1.6M glucose sugar were dissolved in phosphate buffered saline, PBS. Sodium azide was added at 0.02% concentration as a preservative. The solution was filtered asceptically through a […] filter and kept for aging at 37° C. for 16 weeks. After 16 weeks the solution was dialyzed against PBS, aliquoted and stored at −20° C.
To determine the AGE breaking activity, 10 μg/ml of the 16 weeks AGE-BSA was incubated with different concentrations of the test compounds at 37° C. for 24 hours and AGE breaking activity of the test compounds by ELISA was determined.
• 1. Different concentrations of 16 weeks AGE-BSA were coated on a microtiter plate as standard. Each concentration is coated in triplicates. • 2. The test samples were coated on microtiter plate at a concentration of 5 ng. to 20 ng per well in triplicates. • 3. The plate was incubated at 37° C. for one hour. • 4. After incubation the plate was washed with PBST (PBS with 0.05% Tween 20). • 5. Blocking with 5% skimmed milk in PBS at 37° C. for one hour was done. • 6. The plate was washed with PBST. • 7. Primary antibody against AGE-BSA was added and the plate is incubated at 37° C. for one hour. • 8. The plate was washed with PBST. • 9. Secondary antibody anti rabbit HRPO (Horse-Radish Per Oxidase) conjugate was added and the plate is incubated at 37° C. for one hour. • 10. The plate was washed with PBST. • 11. Colour development with OPD (orthophenylenediamine dihydrochloride) and hydrogen peroxide was done. • 12. OD (optical density) at (450 nm reading –620 nm reading) was measured after incubation at 37° C. for 15 minutes with Microplate ELISA Reader.
The breaker activity of the compounds were determined by the following formula:
[formula] OD450-620Control=Absorbance of 20 ng AGE-BSA after incubation at 37° C. for 24 hours without test compound. OD450-620Test=Absorbance of 20 ng AGE-BSA after incubation at 37° C. for 24 hours with required concentration of test compound.
Gel Permeation Chromatography based method was used to determine AGE breaking activities of the compounds.
Separation by Gel Permeation Chromatography (GPC) depends on differences in the size, more precisely the hydrodynamic volume, of the proteins in a sample. […] The pores of a column particle are differentially accessible to smaller particles, depending on their size. This volume of the column is called (V1). The total accessible volume (Vt) is the sum of the volume outside the particles (V0) and the volume accessible inside the particles (V1): Vt=V0+Vi Therefore, in a typical Gel Permeation Chromatography (GPC) run, high molecular weight molecules elute at a lower retention time whereas lower molecular weight molecules are retained for longer time. For the purpose of quantification, the area under the curve for the respective molecule is recorded. The same principle has been applied in the in vitro screening of the molecules of instant invention. Highly cross-linked Advanced Glycosylated Endproducts (AGE) were prepared in vitro by incubating Bovine Serum Albumin (BSA) with glucose for a period of 16 weeks. […] The reduction in the area of AGE-BSA incubated in the presence of AGE breaker as compared to that of control AGE BSA (incubated in absence of AGE breaker) gives an estimate of the AGE breaker activity of the drug. In order to check the non-specific activity of the molecule, a similar experiment was repeated with BSA as well. Methodology:
A known concentration of 16-week AGE-BSA was incubated with and without a predetermined concentration of the drug at 37° C. for 24 hours in clean transparent glass test tubes. The solution without drug served as the control and the solution containing the drug was treated as the test sample.
Gel permeation chromatography was performed on equal volumes of control AGE-BSA preparation and solution of AGE-BSA treated with drug. […]

[3] = system: Maillard reaction in-vitro (BSA, ribose); test: Test for AGE inhibiting activity (Maillard reaction in-vitro, BSA + ribose, fluorescence); assay type: biochemical, bovine; details: 37° C., 7 days
Procedure: The following method was used to determine the inhibitory effect of the test compounds on Maillard reaction in-vitro. This method is adopted from U.S. Pat. No. 5,514,676 and European Patent No. 0 339 496 A2.
A solution of Bovine Serum Albumin (BSA), ribose and test compound was prepared in Phosphate Buffer Saline (PBS, pH 7.4) so as to have final concentration of BSA and ribose at 10 mg/ml and 500 mM respectively. Addition of compound was done in aseptic conditions. Sodium azide (0.02%) was also added in this solution in order to prevent microbial growth. A separate tube containing BSA, ribose and sodium azide in the same concentration and buffer as above, but without any test compound, was also incubated as positive control. After incubation at 37° C. for 7 days, 40 micro liter sample from each tube was removed and diluted with PBS to have final concentration of BSA at 1 mg/ml. The fluorescence of all the samples was measured at Excitation Maximum of […] and the Emission Maximum of […] using f-MAX Fluorimeter (Molecular Device, USA). In order to study the effect of test compound on fluorescence, freshly prepared compound solution was mixed with previously incubated positive control (i.e. BSA+ribose), so as to achieve same concentration of all the components as that of test samples.
The percent inhibition of test compound was measured as follows:
[formula] Where F3=Fluorescence of BSA+ribose+compound, F4 is fluorescence of incubated (BSA+ribose)+freshly added test compound.

[4] = Free radical scavenging activity on ABTS radical cation; assay type: biochemical
Procedure: This method measures the relative ability of free radical scavenging substances to scavenge the ABTS.^+ i.e. 2,2-Azino-bis-(3-ethyl benzo thiazoline-6-sulfonate) radical cation as compared to a standard amount of standard or free radical scavengers antioxidants. Incubation of ABTS with Peroxidase (metmyoglobin) and hydrogen peroxide results in the production of radical cation ABTS.^+. This species is blue-green in colour and can be detected at 730 nm. Antioxidants or free radical scavengers in the added sample that causes suppression of the color to a degree that is proportional to their concentration.
Preparation of Buffer Solutions: • a. Phosphate Citrate Buffer (pH 5.0): 48.5 ml of 0.1M citric acid with sufficient 0.2M disodium hydrogen phosphate to produce 100 ml. • b. Phosphate Buffer Saline (PBS): Dissolve 40.0 g of NaCl, 1.0 g of KCl, 1.0 g of KH2PO4 and 3.05 g of Na2HPO4 in 1 liter milli-Q water. Dilute 200 ml of above solution to 1 liter with milli-Q water (pH 7.4–7.6).
Preparation of ABTS Stock Solution (2 mM): • 1 tablet (10 mg) was dissolved in phosphate citrate buffer (pH 5.0) to give a 2 mM solution.
Preparation of Horse Radish Peroxidase Working Solution: • 0.1 mg was dissolved in 10 ml of phosphate buffer saline, 1 ml of this solution was diluted to 100 ml with PBS.
Preparation of Hydrogen Peroxide (1.08 mM) Solution: • 12 μl of Hydrogen Peroxide (30% w/v) was diluted to 100 ml with PBS.
Preparation of Drug Solutions: • 0.1 mM of stock solution of the drug was prepared which was serially diluted in PBS to get 0.05 mM, 0.025 mM and 0.0125 mM solutions.
Preparation of ABTS Radical Stock Solution: • To 2 ml of ABTS stock solution, 1 ml of horseradish Peroxidase working solution was added. • As soon as 2 ml of Hydrogen peroxide solution was added to the above solution, blue-green colour of the ABTS radicals appeared. This solution was incubated at 30° C. for 30 min in order to ensure the completion reaction. Make up the volume to 10 ml with PBS.
Preparation of Control Solution: • 900 μl of ABTS radical stock solution were added to an eppendorf tube. To it were added 100 μl of PBS solution.
Preparation of Test Solution: • 900 μl of ABTS radical stock solutions were added to different eppendorf tubes. To it were added 100 μl of various concentrations of drug solution.
Measurement of Absorbance (O.D): • The absorbance of control and test samples was recorded immediately at 730 nm taking PBS as blank.
Calculation: • The percent antioxidant activity was calculated according to the formula: % Antioxidant activity=100−[O.D of test sample/O.D of control×100]

T1 sequence (P02769 25-607): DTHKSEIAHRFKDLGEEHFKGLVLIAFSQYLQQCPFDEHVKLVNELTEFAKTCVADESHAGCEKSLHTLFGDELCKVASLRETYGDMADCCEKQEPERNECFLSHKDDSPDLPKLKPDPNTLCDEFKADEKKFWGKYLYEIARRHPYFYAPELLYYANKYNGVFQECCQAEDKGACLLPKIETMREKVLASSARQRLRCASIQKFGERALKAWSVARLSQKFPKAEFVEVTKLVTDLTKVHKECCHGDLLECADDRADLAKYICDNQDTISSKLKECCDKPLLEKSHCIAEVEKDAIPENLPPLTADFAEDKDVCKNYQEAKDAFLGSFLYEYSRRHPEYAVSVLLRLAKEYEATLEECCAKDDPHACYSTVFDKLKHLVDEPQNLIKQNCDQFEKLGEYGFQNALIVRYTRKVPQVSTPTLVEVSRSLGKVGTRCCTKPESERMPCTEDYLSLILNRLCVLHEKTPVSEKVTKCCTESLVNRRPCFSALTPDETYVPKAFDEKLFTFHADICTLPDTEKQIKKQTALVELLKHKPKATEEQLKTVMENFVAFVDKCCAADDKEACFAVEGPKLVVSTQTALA

% Breakage (AGE-BSA; 10 mM compound) [%] | % Breakage (AGE-BSA; 5 mM compound) [%] | Structure (SMILES) | cleavage of AGE derived protein cross links [1] | arterial stiffness and arterial compliance [2] | % Inhibition (Day 7) ([3]; 5 mM compound) [%] | Relative Free Radical Scavenging Activity (%) on ABTS ([4]; 12.5 μM) [%] | Relative Free Radical Scavenging Activity (%) on ABTS ([4]; 25.0 μM) [%] | Relative Free Radical Scavenging Activity (%) on ABTS ([4]; 50.0 μM) [%] | Relative Free Radical Scavenging Activity (%) on ABTS ([4]; 100.0 μM) [%] | % Inhibition (Day 7) ([3]; 2.5 mM compound) [%] | % Inhibition (Day 7) ([3]; 10 mM compound) [%]
– | – | O=C(C[n+]1ccsc1)c1ccccc1.[Br-] [N-phenacyl thiazolium bromide] | cleaves covalent, AGE derived protein cross links | – | – | – | – | – | – | – | –
– | – | Cc1sc[n+](CC(=O)c2ccccc2)c1C.[Cl-] [ALT-711] | – | reverse diabetes induced increase of arterial stiffness and improve arterial compliance | – | – | – | – | – | – | –
91.22 | – | O=C(C[n+]1cccc(-c2cc(Cc3ccccc3)nn2-c2ccccc2)c1)c1ccccc1.[Cl-] [Compound 19, 1-(2-Phenyl-2-oxoethyl)-3-[(1-phenyl-3-phenylmethyl)pyrazol-5-yl]pyridinium chloride] | – | – | 64.23 | 8.37 | 19.42 | 37.62 | 55.18 | – | –
100.00 | – | O=C(C[n+]1cccc(-c2cc(CCC3CCCCC3)n[nH]2)c1)c1ccccc1.[Cl-] [Compound 22] | – | – | – | 22.52 | 29.52 | 30.31 | 31.40 | 51 | –
81.05 | – | Cc1cc(C)n(Cc2cc(-c3ccc[n+](CC(=O)c4cccs4)c3)n(-c3ccccc3)n2)n1.[Cl-] [Compound 13] | – | – | – | 23.58 | 41.78 | 64.01 | 82.54 | – | 57
– | 52.97 | Cc1cc(C)n(Cc2cc(-c3ccc[n+](CC(=O)c4ccc(C)s4)c3)[nH]n2)n1.[Cl-] [Compound 18, 1-(2-(5-Methyl-2-thienyl)-2-oxoethyl)-3-[(3,-(3,5-dimethylpyrazol-1-yl)methyl)pyrazol-5-yl]pyridinium chloride] | – | – | 79 | 28.65 | 53.8 | 84.41 | 95.32 | – | –
52.27 | – | Cc1cc(C)n(Cc2cc(-c3ccc[n+](CC(=O)c4ccccc4)c3)[nH]n2)n1.[Cl-] [Compound 17, 1-(2-Phenyl-2-oxoethyl)-3-[(3-(3,5-dimethylpyrazol-1-yl)methyl)pyrazol-5-yl]-pyridinium chloride] | – | – | – | 28.34 | 54.43 | 83.56 | 94.81 | 57.43 | –

Structure (SMILES) | % Breakage (AGE-BSA; 10 mM compound) [%] | % Breakage (AGE-BSA; 5 mM compound) [%] | cleavage of AGE derived protein cross links [1] | arterial stiffness and arterial compliance [2] | % Inhibition (Day 7) ([3]; 5 mM compound) [%] | Relative Free Radical Scavenging Activity (%) on ABTS ([4]; 12.5 μM) [%] | Relative Free Radical Scavenging Activity (%) on ABTS ([4]; 25.0 μM) [%] | Relative Free Radical Scavenging Activity (%) on ABTS ([4]; 50.0 μM) [%] | Relative Free Radical Scavenging Activity (%) on ABTS ([4]; 100.0 μM) [%] | % Inhibition (Day 7) ([3]; 2.5 mM compound) [%] | % Inhibition (Day 7) ([3]; 10 mM compound) [%]
O=C(C[n+]1cccc(-c2cc(COc3ccccc3)n[nH]2)c1)c1cccs1.[Cl-] [Compound 24, 1-(2-Thien-2′-yl-2-oxoethyl)-3-[(3-phenoxymethyl)pyrazol-5-yl]pyridinium chloride] | 97.72 | – | – | – | 82.5 | 43.66 | 74.64 | 83.24 | 90.12 | – | –
Cc1cc(C)n(Cc2cc(-c3ccc[n+](CC(=O)c4ccccc4)c3)n(-c3ccccc3)n2)n1.[Br-] [Compound 26] | 42.37 | – | – | – | 61.45 | 21.18 | 34.22 | 41.66 | 75.27 | – | –
